Laboratory results reported in patent publication US20240245677A1, “SELECTED COMPOUNDS FOR TARGETED DEGRADATION OF BRD9” (C4 THERAPEUTICS, INC., priority 2021, published 2024).

Columns and labels:
GSPT1 = target: T1, GSPT1 (Homo sapiens, UniProt P15170+Q96SW2); assay: GSPT1 HiBiT degradation assay in HEK293T.114 cells; assay type: cell-based; conditions: 6 hours
T1 construct: CRISPR-edited to endogenously express HiBiT tagged GSPT1; host or cells: HEK293T.114
Description: This assay evaluated the off-target degradation of the cereblon neosubstrate, Eukaryotic peptide chain release factor GTP-binding subunit ERF3A (GSPT1), induced by treatment with Compound 1 as measured by luminescence using Nano-Glo HiBiT® Lytic Assay System in 293T cells CRISPR-edited to endogenously express HiBiT tagged GSPT1.
Nano-Glo® HiBiT Lytic Assay System was purchased from Promega (Catalog No. N3050, Madison, WI, USA). HEK293T cells were obtained from ATCC (Catalog No. CRL-3216, Manassas, VA, USA), and maintained in DMEM medium (Catalog No. 11995065, ThermoFischer Scientific, Waltham, MA, USA) supplemented with 10% heat inactivated FBS (Catalog No. 16000-044, Gibco, Grand Island, NY, USA) at 37° C. in an atmosphere of 5% CO2 in air. The HiBiT polypeptide tag was introduced into the N-terminus of the endogenous GSPT1 locus by CRISPR-Cas9 to produce the HEK293T.114 modified cell line. The HiBiT polypeptide allows reconstitution of NanoBiT enzyme following cell lysis and addition of the complementing LgBiT polypeptide that activates substrate to produce a luminescent signal that is directly proportional to the amount of HiBiT-tagged GSPT1.
HEK293T.114 cells were routinely sub-cultured to maintain cell density between 30-80% confluence, not to exceed 20 passages. Cells were washed with PBS, trypsinized for 5 minutes at 37° C., and resuspended in fresh growth media without phenol red. An aliquot was diluted 2× with Trypan Blue solution 0.4% (Catalog No. 15250061, ThermoFisher Scientific, Waltham, MA, USA) and cell count determined. Cell concentration was adjusted with growth media without phenol red to 2×10^5 cells/mL.
The 10 mM DMSO stock solutions of Compound 1 or CC0885 were serially diluted (half log) in DMSO to generate 11-point dose series (10000, 3160, 1000, 316, 100, 31.6, 10, 3.2, 1, 0.32, 0.1 μM) in an acoustic ready 384-well low dead volume microplate (Catalog No. LP-0200, Beckman Coulter Life Sciences, Indianapolis, IN, USA). Using an Echo 550 Acoustic Liquid Handler (Beckman Coulter Life Sciences, Indianapolis, IN, USA), 30 nL of serially diluted compound solutions were dispensed in duplicate to each 384-well black TC-treated microplate (Catalog No. 3571, Corning, Glendale, CA, USA). 30 nL DMSO was transferred to all control wells.
30 μL of HEK293T.114 cells suspended in growth media without phenol red at 2×10^5 cells/mL (6000 cells/well) were dispensed using a Multidrop Combi Reagent Dispenser (Catalog No. 5840300, ThermoFisher Scientific, Waltham, MA, USA) to each well of columns 1-23 of 384-well black TC-treated microplates containing duplicate concentration range of test compounds and DMSO controls. 30 μL of media was dispensed to column 24 as background positive control (P). Plates were spun briefly at 1000 rpm and cells were incubated at 37° C., 5% CO2 for 6 hours. Final concentration of DMSO was 0.1% for all samples.
Cellular GSPT1 protein level was determined based on quantification of HiBiT using Nano-Glo® HiBiT Lytic Assay System (Promega). 30 μL Nano-Glo Lytic Assay reagents were added to each well of columns 1-23 and luminescence was acquired on EnVision® Multilabel Reader (Catalog No. 2104-0010, Perkin Elmer Inc., Dumfries, VA, USA). Column 24 (cells without Nano-Glo reagent addition) was used as plate background or positive control (P). Cells treated in the absence of the test compound (0.1% DMSO vehicle) were the negative control (N)/
Percent response of compound-treated samples (T) were calculated by normalizing to the DMSO treated negative (N) controls on the same microtiter plate after background (i.e., positive control) signal subtraction:
Curve fit and DC50 (concentration that degrades 50% GSPT1) determination was performed by 4 parametric logistic fit analysis using software such as GraphPad Prism software (GraphPad Software, LLC, San Diego, CA, USA). […]

G402 tumor xenografts = assay: Antitumor activity in G402 malignant rhabdoid tumor xenograft model; assay type: in vivo, mouse; conditions: for TGI: day 21
Description: To evaluate the efficacy potential of Compound 1 in the malignant rhabdoid tumor setting, BALB/c nude female mice bearing G402 tumor xenografts (WuXi AppTec, Shanghai, China) were treated with a daily regimen of escalating doses of Compound 1 (10 mg/kg, 30 mg/kg, or 50 mg/kg) or vehicle via oral gavage for 21 days (FIG. 3). Compound 1 was tolerated in this study with all mice except two losing no greater than 8% body weight (FIG. 4). […] One mouse in the 50 mg/kg QD group also experienced accumulating body weight loss to end the study at −17.3% but was never taken off study. […] TGI and One-way ANOVA analyses were performed on day 21, the last day all animals were on study.
The G402 tumor cells were maintained in vitro in McCoy's 5a medium supplemented with 10% fetal bovine serum and 1% Penicillin-Streptomycin at 37° C. in an atmosphere of 5% CO2 in air. The tumor cells were routinely subcultured twice weekly. The cells growing in an exponential growth phase were harvested and counted for tumor inoculation.
Each mouse was inoculated subcutaneously at the right flank with G402 cells (10×10^6) in 0.2 mL of PBS supplemented with Matrigel (PBS:Matrigel=1:1) for tumor development. For efficacy part, the treatments were started when the average tumor volume reaches 175 mm^3.

T1 sequence (P15170 whole entry): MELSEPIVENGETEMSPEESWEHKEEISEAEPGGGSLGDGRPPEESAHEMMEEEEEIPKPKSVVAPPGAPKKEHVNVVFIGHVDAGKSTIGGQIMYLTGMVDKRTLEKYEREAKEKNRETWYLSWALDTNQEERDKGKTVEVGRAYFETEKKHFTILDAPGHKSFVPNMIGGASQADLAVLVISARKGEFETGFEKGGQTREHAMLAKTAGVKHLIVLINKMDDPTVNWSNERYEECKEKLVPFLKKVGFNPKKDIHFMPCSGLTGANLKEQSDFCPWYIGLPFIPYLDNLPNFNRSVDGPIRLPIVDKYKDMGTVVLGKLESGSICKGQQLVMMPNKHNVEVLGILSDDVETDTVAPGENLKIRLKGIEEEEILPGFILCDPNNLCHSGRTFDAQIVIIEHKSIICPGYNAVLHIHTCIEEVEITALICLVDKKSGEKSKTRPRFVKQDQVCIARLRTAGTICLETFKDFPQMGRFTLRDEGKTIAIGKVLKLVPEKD
T1 sequence (Q96SW2 whole entry): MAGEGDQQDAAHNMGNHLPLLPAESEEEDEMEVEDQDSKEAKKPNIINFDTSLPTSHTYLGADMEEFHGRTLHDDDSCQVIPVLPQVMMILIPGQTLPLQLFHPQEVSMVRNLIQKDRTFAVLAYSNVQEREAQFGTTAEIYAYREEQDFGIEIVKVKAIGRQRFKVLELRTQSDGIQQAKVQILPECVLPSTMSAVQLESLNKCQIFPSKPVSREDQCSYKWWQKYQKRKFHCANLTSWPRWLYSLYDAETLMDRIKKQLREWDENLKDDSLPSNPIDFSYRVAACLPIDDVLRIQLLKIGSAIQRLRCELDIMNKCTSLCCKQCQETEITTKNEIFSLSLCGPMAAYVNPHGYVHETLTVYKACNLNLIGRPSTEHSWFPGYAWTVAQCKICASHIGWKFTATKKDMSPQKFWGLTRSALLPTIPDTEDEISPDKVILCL
T1 sequence (Q16531 2-1140 partner limits assumed): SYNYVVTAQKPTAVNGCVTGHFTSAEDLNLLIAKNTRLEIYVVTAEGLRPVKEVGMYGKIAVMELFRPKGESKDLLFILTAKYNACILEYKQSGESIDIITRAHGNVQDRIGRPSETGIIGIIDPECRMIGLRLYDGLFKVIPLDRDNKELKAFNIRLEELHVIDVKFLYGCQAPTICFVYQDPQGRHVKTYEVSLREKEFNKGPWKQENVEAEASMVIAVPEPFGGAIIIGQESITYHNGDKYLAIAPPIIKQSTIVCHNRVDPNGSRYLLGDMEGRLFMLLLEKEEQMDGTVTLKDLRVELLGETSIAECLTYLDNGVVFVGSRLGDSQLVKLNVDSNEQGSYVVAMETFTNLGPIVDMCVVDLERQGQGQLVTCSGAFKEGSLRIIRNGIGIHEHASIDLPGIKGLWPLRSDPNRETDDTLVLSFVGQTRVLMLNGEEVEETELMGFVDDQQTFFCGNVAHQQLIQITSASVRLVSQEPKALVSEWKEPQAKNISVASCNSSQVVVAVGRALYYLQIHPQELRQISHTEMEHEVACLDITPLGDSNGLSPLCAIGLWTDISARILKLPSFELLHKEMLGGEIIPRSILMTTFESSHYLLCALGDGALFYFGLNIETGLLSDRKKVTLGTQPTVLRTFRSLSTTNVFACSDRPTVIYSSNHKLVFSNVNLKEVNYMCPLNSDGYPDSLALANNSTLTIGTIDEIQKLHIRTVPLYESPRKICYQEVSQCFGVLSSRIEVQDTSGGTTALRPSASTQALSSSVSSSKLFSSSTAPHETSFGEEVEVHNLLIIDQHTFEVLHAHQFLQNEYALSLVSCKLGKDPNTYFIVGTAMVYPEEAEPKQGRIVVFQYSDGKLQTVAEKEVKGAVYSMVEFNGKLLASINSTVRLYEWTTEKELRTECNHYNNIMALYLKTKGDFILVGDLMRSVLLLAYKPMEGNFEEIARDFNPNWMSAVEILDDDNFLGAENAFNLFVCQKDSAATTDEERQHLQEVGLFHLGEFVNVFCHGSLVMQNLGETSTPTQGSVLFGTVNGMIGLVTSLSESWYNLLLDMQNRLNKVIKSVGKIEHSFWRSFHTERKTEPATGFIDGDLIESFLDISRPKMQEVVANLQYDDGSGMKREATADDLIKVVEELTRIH

For `COc1cc(-c2cn(C)c(=O)c(C)c2C)cc(OC)c1CN1CC[C@H](N2CCN(c3ccc(N[C@H]4CCC(=O)NC4=O)cc3F)CC2)C(F)(F)C1` [Compound 1, (S)-3-((4-(4-((S)-1-(2,6-dimethoxy-4-(1,4,5-trimethyl-6-oxo-1,6-dihydropyridin-3-yl)benzyl)-3,3-difluoropiperidin-4-yl)piperazin-1-yl)-3-fluorophenyl)amino)-piperidine-2,6-dione], the “% GSPT1 Remaining, Mean” value (GSPT1; 0.100 nM) was 97.4%, the “% GSPT1 Remaining, Mean” value (GSPT1; 0.316 nM) was 86.7% and the “% GSPT1 Remaining, Mean” value (GSPT1; 1.00 nM) was 70.8%. For the same compound, the “% GSPT1 Remaining, Mean” value (GSPT1; 3.15 nM) was 34.4%, the “% GSPT1 Remaining, Mean” value (GSPT1; 10.0 nM) was 12.4% and the “% GSPT1 Remaining, Mean” value (GSPT1; 31.5 nM) was 6.0%. For the same compound, the “% GSPT1 Remaining, Mean” value (GSPT1; 100 nM) was 4.0%, the “% GSPT1 Remaining, Mean” value (GSPT1; 317 nM) was 3.5% and the “% GSPT1 Remaining, Mean” value (GSPT1; 1000 nM) was 3.2%. The “% GSPT1 Remaining, Mean” value (GSPT1; 3161 nM) was 3.0%, the “% GSPT1 Remaining, Mean” value (GSPT1; 9990 nM) was 3.8% and the DC50 (GSPT1; GSPT1-HiBiT, HEK293T.114 cells, read-out: Geometric Mean DC50) was over 10 µM. The Emax (GSPT1; GSPT1-HiBiT, HEK293T.114 cells, read-out: Mean Emax (%) ± SD) was 93.9 ± 5.85%, the “effect on degradation of GSPT1” value (GSPT1; concentrations up to 10 μM) was “no significant effect” and the “body weight loss, one mouse” value (G402 tumor xenografts; 10 mg/kg QD group) was “over 15%”. The TGI (G402 tumor xenografts; 30 mg/kg/day oral) was 73%, the “body weight change at end of study, one mouse” value (G402 tumor xenografts; 50 mg/kg QD group) was −17.3% and the TGI (G402 tumor xenografts; 50 mg/kg/day oral) was 78%. For the same compound, the “body weight loss, all mice except two” value (G402 tumor xenografts; 10, 30 or 50 mg/kg daily for 21 days) was at most 8%.
